From patent US4963542A, “Cephalosporin derivatives” (Takeda Chemical Industries, Ltd., priority 1976, dated 1990)

Columns and labels:
Experiment in all cases: Minimal inhibitory concentration, agar serial dilution
Type in all cases: cell-based
Conditions in all cases: TSA, inoculum 10^7 /ml
[1] = system: Citrobacter freundii GN1706
Description: (§1) (a) Minimal inhibitory concentrations (Table 1 and 2)
(§2) Method: Agar serial dilution

[2] = system: Citrobacter freundii GN99
Description: as §1, §2

[3] = system: Escherichia coli 0-111
Description: as §1, §2

[4] = system: Escherichia coli NIHJ JC-2
Description: as §1, §2

[5] = system: Escherichia coli T-7
Description: as §1, §2

[6] = system: Klebsiella pneumoniae DT
Description: as §1, §2

[7] = system: Klebsiella pneumoniae GN-3835
Description: as §1, §2

[8] = system: Proteus mirabilis GN4359
Description: as §1, §2

[9] = system: Proteus morganii IFO3168
Description: as §1, §2

[10] = system: Proteus rettgeri GN4733
Description: as §1, §2

[11] = system: Proteus rettgeri TN338
Description: as §1, §2

[12] = system: Proteus vulgaris GN4413
Description: as §1, §2

[13] = system: Proteus vulgaris IFO 3988
Description: as §1, §2

[14] = system: Serratia marcescens IFO 12648
Description: as §1, §2

[15] = system: Serratia marcescens TN24
Description: as §1, §2

[16] = system: Staphylococcus aureus 1840
Description: as §1, §2

[17] = system: Staphylococcus aureus 209P
Description: as §1, §2

[18] = system: Enterobacter cloacae TN1282
Description: as §1, §2

| Structure (SMILES) | Minimal inhibitory concentration (MIC) [1] | Minimal inhibitory concentration (MIC) [2] | Minimal inhibitory concentration (MIC) [3] | Minimal inhibitory concentration (MIC) [4] | Minimal inhibitory concentration (MIC) [5] | Minimal inhibitory concentration (MIC) [6] | Minimal inhibitory concentration (MIC) [7] | Minimal inhibitory concentration (MIC) [8] | Minimal inhibitory concentration (MIC) [9] | Minimal inhibitory concentration (MIC) [10] | Minimal inhibitory concentration (MIC) [11] | Minimal inhibitory concentration (MIC) [12] | Minimal inhibitory concentration (MIC) [13] | Minimal inhibitory concentration (MIC) [14] | Minimal inhibitory concentration (MIC) [15] | Minimal inhibitory concentration (MIC) [16] | Minimal inhibitory concentration (MIC) [17] | Minimal inhibitory concentration (MIC) [18] |
| --- | --- | --- | --- | --- | --- | --- | --- | --- | --- | --- | --- | --- | --- | --- | --- | --- | --- | --- |
| Cc1nnc(SCC2=C(C(=O)[O-])N3C(=O)C(NC(=O)Cn4cnnn4)[C@H]3SC2)s1.[Na+] (stereo partly shown) [Cefazolin, sodium 7-(1H-tetrazol-1-yl)acetamido-3-(2-methyl-1,3,4-thiadiazol-5-yl)thiomethyl-3-cephem-4-carboxylate, reference compound] | > 100 | 12.5 | 1.56 | 1.56 | 50 | 1.56 | 6.25 | 6.25 | 100 | 100 | ≤ 0.2 | > 100 | 3.13 | > 100 | > 100 | 1.56 | 0.39 | – |
| CC(=O)OCC1=C(C(=O)[O-])N2C(=O)C(NC(=O)Cc3cccs3)[C@H]2SC1.[Na+] (stereo partly shown) [Cephalothin, sodium 7-(2-thienylacetamido)-3-acetoxymethyl-3-cephem-4-carboxylate, reference compound] | > 100 | 25 | 3.13 | 12.5 | 100 | 1.56 | 12.5 | 3.13 | > 100 | > 100 | 1.56 | > 100 | 1.56 | > 100 | > 100 | 0.39 | 0.20 | > 100 |
| N=c1[nH]c(/C(=N/O)C(=O)NC2C(=O)N3C(C(=O)O)=C(CSc4cnn[nH]4)CSC23)cs1 (stereo not drawn) [Example 13, sodium 7-[2-(2-imino-4-thiazolin-4-yl)-2-hydroxyimino-acetamido]-3-(1,2,3-triazol-5-yl)thiomethyl-3-cephem-4-carboxylate (syn-isomer)] | 0.78 | 0.39 | 0.05 | 0.10 | 0.78 | 0.05 | 0.20 | 0.10 | 0.20 | 0.20 | ≤ 0.012 | 50 | 0.10 | 12.5 | 1.56 | 0.78 | 0.78 | 25 |
| Cc1nsc(SCC2=C(C(=O)O)N3C(=O)C(NC(=O)/C(=N\O)c4csc(=N)[nH]4)C3SC2)n1 (stereo not drawn) [Example 14, sodium 7-[2-(2-imino-4-thiazoline-4-yl)-2-hydroxyimino-acetamido]-3-(3-methyl-1,2,4-thiadiazol-5-yl)thiomethyl-3-cephem-4-carboxylate (syn-isomer)] | 0.78 | 0.39 | 0.20 | 0.39 | – | 0.20 | 0.78 | 0.39 | 0.20 | 0.39 | 0.024 | 1.56 | 0.10 | 6.25 | 0.78 | 0.78 | 0.39 | 6.25 |
| N=c1[nH]c(C(=NO)C(=O)NC2C(=O)N3C(C(=O)[O-])=C(C[n+]4ccc(C(N)=O)cc4)CSC23)cs1 (stereo not drawn) [Example 17, 7-[2-(2-imino-4-thiazolin-4-yl)-2-hydroxyimino-acetamido]-3-(4-carbamoylpyridiniummethyl)-3-cephem-4-carboxylate (syn-isomer)] | 0.78 | 0.20 | 0.20 | 0.39 | 25 | 0.20 | 1.56 | 0.39 | 0.39 | 0.20 | 0.05 | 3.13 | 0.39 | 1.56 | 0.78 | 0.39 | 0.39 | 12.5 |
| N=c1[nH]c(/C(=N/O)C(=O)NC2C(=O)N3C(C(=O)O)=C(COC(N)=O)CSC23)cs1 (stereo not drawn) [Example 26, sodium 7-[2-(2-imino-4-thiazolin-4-yl)-2-hydroxyimino-acetamido]-3-carbamoyloxymethyl-3-cephem-4-carboxylate (syn-isomer)] | 0.10 | 0.05 | 0.024 | 0.05 | 0.39 | 0.024 | 0.05 | 0.05 | 0.39 | 0.024 | ≤ 0.012 | 50 | 0.10 | 12.5 | 1.56 | 0.78 | 0.78 | 12.5 |
